The source of these data is patent US20230225321A1, “ARTHROPOD REPELLENTS OBTAINED BY CHEMICALLY CONVERTING LACTIC ACID, LACTATES OR OTHER LACTIC ACID DERIVATIVES” (UNIVERSIDADE FEDERAL DO PARANA, priority 2020, published 2023).

One assay relates to mosquitoes. The following applies: cited from earlier work.
For assay [1], the system named is female A. aegypti mosquitoes. Kind of assay: Repellency test, treated hand in cage of mosquitoes, time to first bite. In kind it is in vivo. The following applies: for Repellency: repellency time until first bite, solutions of 15 to 20% in ethanol applied to hand, cage with 20 female A. aegypti. Here is the method: Repellency tests can be carried out in the laboratory, at a temperature of 20° C.±2° C. and a relative humidity of 50 to 60%. Temperature and relative humidity data should be monitored and recorded using a digital thermohygrometer during the experiments.
To perform the tests, there were used wooden cages with screens on the sides and glass on the upper face measuring 30 cm×30 cm×30 cm containing 20 female A. aegypti mosquitoes, all mated with no previous blood meal. The tests must be carried out during the daytime, respecting the preference for the mosquito's hematophagy activity.
For the tests, one of the hands of the analyzer must be sanitized with neutral soap and then the upper, lower, lateral face and the region between the fingers must be treated with repellent solutions in ethanol, in order for the compounds to have their repellency activities evaluated. […]
When the first bite occurs, the experiment is interrupted, and the time is recorded by a digital stopwatch.

SMILES strings stand for the structures.

In the case of `CCN(CC)C(=O)c1cccc(C)c1` [DEET, N,N-diethyl-3-methylbenzamide], in the assay with mosquitoes (concentration of 20% to 30% of the compound), the “long-lasting effect (duration)” value is “more than 6 hours”.

In the case of `CCCCN(CCC(=O)OCC)C(C)=O` [IR 3535, ethyl butylacetylaminopropionate], in the assay on mosquitoes (used in a concentration above 10%), the effectiveness entry is reported as “slightly lower compared to DEET”.

As to `CCC(C)OC(=O)N1CCCCC1CCO` (centres unmarked) [Icaridin], in the assay with mosquitoes (concentration of 20%), the “protection (duration)” value is given as “up to 10 hours”. Further, the “minimum concentration for repellent action” value with mosquitoes (in vivo) is 5%.

With `CCCC(=O)OC(C)C(=O)N1CCCC1` (centres unmarked) [Input 2], the Repellency in assay [1] is >10 h.

With `CCCC(=O)O[C@@H](C)C(=O)N(CC)CC` [Input 3], the Repellency in assay [1] was 2 h.

On to `CCN(CC)C(=O)[C@H](C)OC(C)=O` [Input 4], for which, in assay [1], the Repellency came out at 5 h.

`CCCC(=O)O[C@@H](C)C(=O)N1CCCCC1` [Input 5]: the Repellency in assay [1] was >10 h.

As for `C[C@H](O)C(=O)N1CCCC1` [Input 7], in assay [1], the Repellency stood at 0 h.

On to `CCCC(=O)O[C@@H](C)C(=O)N1CCCC1` [Input 8], for which the Repellency in assay [1] was >12 h. The “result in terms of repellency time (comparison within Table 1)” value in assay [1] (solutions of 15 to 20% in ethanol) was “best result in terms of repellency time”.
